From patent US20110079773A1, “Selectively Functionalized Rylene Imides and Diimides” (priority 2009, published 2011)
In brackets after ≈: the same amount, converted by molar mass. Several values for one entry are separate records, joined by “and”; a condition that tells them apart may be missing. Identical values can stand only once. Like-named read-outs stand apart in the source and are kept apart here. Marks after values point to notes of the source that are not given here.

Experiments:
[1] = Steady-state electronic absorption and fluorescence spectroscopy; type: physicochemical; details: for E(S1): determined from the average energy of the absorption and emission maxima; for λmax: UV-vis absorption in toluene; for ε: extinction coefficient at λmax; for ε / λem: toluene; for λem: fluorescence emission maximum; for φF: fluorescence quantum yield
Protocol: Steady-state electronic absorption spectra were recorded on a Shimadzu 1601 UV/Vis spectrometer with a 2 mm quartz cuvette. Fluorescence measurements were performed using a PTI Quanta-Master 1 single photon counting spectrofluorimeter in a right angle configuration with a 1 cm quartz cuvette.
The intensity of the S0→>S1 transition increases with the size of the aromatic core, while the energy decreases. The fluorescence spectrum of each chromophore is shown in FIG. 4b and summarized in Table 4 along with that of compounds 1, 3, 5, 7, and 9. A similar trend with the emission maxima moving to longer wavelengths as the size of the aromatic core increases was observed. The electronic absorption and fluorescence properties of all the alkylated chromophores are very similar to those of the parent compounds. No observable trend is apparent for the slight shifts in λmax; however, with the exception of 2, all alkylated compounds have slightly lower extinction coefficients than their parent compounds. The fluorescence emission maxima of the alkylated compounds (Table 4) are similar to those of the parent compounds as reported in the literature. See Hydlovic et al., Phtochem. Photobiol. A., 112: 197-203 (1998); Licchelli et al., Chem. Eur. J., 8: 5161-5169 (2002); Weil et al., Chem. Eur. J., 8: 4742-4750 (2002); and Sadrai et al., J. Phys. Chem., 96: 7988-7996 (1992).

[2] = literature values (footnotes a Gosztola et al., c Lee et al.), cited from earlier work; for E^−1/2: first reduction potential; for E^2−1/2: second reduction potential
[3] = cited from earlier work; for ε: extinction coefficient at λmax; for ε / λem: literature values (footnotes a, b); for λem: fluorescence emission maximum; for φF: fluorescence quantum yield, literature values (footnotes d-h); for λmax: literature values (footnotes a Gosztola et al., b Holtrup et al.)
[4] = literature values (footnote a Hayes et al.); cited from earlier work
[5] = Electrochemistry (redox potentials); type: physicochemical; details: for E^−1/2: first reduction potential; for Reduction potential more negative than that of parent compound: shift versus unsubstituted parent; for E^2−1/2: second reduction potential; for E^+1/2: oxidation potential
Protocol: Electrochemical measurements were performed using a CH Instruments Model 622 electrochemical workstation. Measurements for compounds 4, 6, 8, and 10 were performed in dichloromethane containing 0.1 M tetrabutylammonium hexafluorophosphate (TBAPF6) electrolyte. Measurements for 2 were performed in benzonitrile with the same electrolyte. A 1.0 mm diameter platinum disk electrode, platinum wire electrode, and […] reference electrode were employed. The ferrocene/ferrocenium redox couple (Fc/Fc^+, 0.46 V vs. SCE) (see Connelly et al., Chem. Rev., 96: 877-910 (1996)) was used as an internal standard. TBAPF6 was recrystallized twice from ethyl acetate prior to use.
Alkylation (e.g., substitution of the phenethyl groups) ortho to the imide nitrogen atoms appears to render the present compounds somewhat more difficult to reduce, but easier to oxidize (Table 3). The reduction potentials of the disubstituted compounds (2, 4, and 6) are approximately 130 mV more negative than those of their parent compounds. Correspondingly, the oxidation potential of the disubstituted 6 is 40 mV less positive than that of […]. Tetrasubstituted 8 and 10 have reduction potentials that are more negative by ˜200 mV than their unsubstituted analogs. These shifts in redox potentials reasonably arise from the electron-donating nature of the alkylating (e.g., phenethyl) groups. The oxidation and reduction potentials of all alkylated molecules shift in the same direction by nearly the same amount, such that the corresponding HOMO-LUMO energy gap remains the same, as is reflected in their electronic absorption and emission spectra described below.

[6] = Femtosecond transient absorption (excited-state decay); type: physicochemical; details: transient absorption decay time constant, dry toluene
Description: Femtosecond transient absorption measurements were made using a Ti:sapphire laser system as detailed in previously reported work. See Kelley et al., J. Am. Chem. Soc., 129: 3173-3181 (2007). The wavelengths used to excite the samples were 390 nm (1-4), 416 nm (5-8), and 650 nm (9 and 10). The instrument response function for the pump-probe experiments is 160 fs. The transient spectra were obtained using 10 s of averaging at a given delay time. Glass cuvettes with a 2 mm pathlength were used and the samples were dissolved in dry toluene and irradiated with 1.0 μJ pulses at the excitation wavelength. Analysis of the kinetic data was performed at multiple wavelengths using a Levenberg-Marquardt nonlinear least-squares fit to a general sum-of-exponentials function with an added Gaussian to account for the finite instrument response.
The transient absorption spectra of naphthalene monoimide 2, specifically, the S1→>Sn absorption is characterized by a single broad band at 525 nm, which decays monoexponentially with a time constant τD=34 ps. This is similar to the time constant of other NMI compounds and is attributed to rapid intersystem crossing leading to the triplet state of 2. […] The residual 530 nm absorption band decays further with a 175 ps time constant. […]

[7] = Solubility in toluene; type: physicochemical; details: for solubility: organic solvent or mixture
Protocol: As used herein, a compound can be considered soluble in a solvent when at least 0.1 mg of the compound can be dissolved in 1 mL of the solvent. Examples of common organic solvents include petroleum ethers; acetonitrile; aromatic hydrocarbons such as benzene, toluene, xylene, and mesitylene; ketones such as acetone, and methyl ethyl ketone; ethers such as tetrahydrofuran, dioxane, bis(2-methoxyethyl)ether, diethyl ether, di-isopropyl ether, and t-butyl methyl ether; alcohols such as methanol, ethanol, butanol, and isopropyl alcohol; aliphatic hydrocarbons such as hexanes; esters such as methyl acetate, ethyl acetate, methyl formate, ethyl formate, isopropyl acetate, and butyl acetate; amides such as dimethylformamide and dimethylacetamide; sulfoxides such as dimethylsulfoxide; halogenated aliphatic and aromatic hydrocarbons such as dichloromethane, chloroform, ethylene chloride, chlorobenzene, dichlorobenzene, and trichlorobenzene; and cyclic solvents such as cyclopentanone, cyclohexanone, and 2-methypyrrolidone. In various embodiments, the present compounds can have good solubility in solvents that are aromatic hydrocarbons such as benzene, toluene, xylene, and mesitylene.
Table 2 below compares the solubilities of several compounds according to the present teachings with their unsubstituted counterparts in toluene.

[8] = dichloromethane, 0.1 M TBAPF6, Fc/Fc+ (0.46 V vs. SCE) internal standard

Compound	E(S1) [1] [eV]	E^−1/2 [2]	ε [3] [M⁻¹ cm⁻¹]	λem [3]	φF [3]	λmax [3] [nm]	τD [4]	λmax [1] [nm]	ε [1] [M⁻¹ cm⁻¹]	λem [1]	φF [1]	Reduction potential more negative than that of parent compound [5]	E^2−1/2 [2]	E^−1/2 [5, 8]	E^+1/2 [5, 8] [V]	solubility [7] [µg/mL]	further results
CCCCC(CC)CN1C(=O)c2ccc3c4cccc5cccc(c6ccc(c2c36)C1=O)c54 (centres unmarked) [Compound 5, N-(2′-ethylhexyl)-perylene-3,4-dicarboximide]	2.38	−1.00^c	29970	539^a nm	0.98^f	505	3500 ± 100^a ps						−1.49^c		1.41	2000 (≈ 4610 µM)	
CCCCCCCCN1C(=O)c2c(CCc3ccccc3)cc3c4cc(CCc5ccccc5)c5c6c(c(CCc7ccccc7)cc(c7cc(CCc8ccccc8)c(c2c37)C1=O)c64)C(=O)N(CCCCCCCC)C5=O [Compound 8, N,N′-bis(n-octyl)-2,5,8,11-tetrakis(phenethyl)perylene-3, 4:9,10-bis(dicarboximide)]	2.35							525	58000	533^ nm	0.99	~200 mV		−0.75^	1.63	2000 (≈ 1940 µM)	E^2−1/2 ([5]; dichloromethane, 0.1 M TBAPF6): −0.93^
CCCCC(CC)CN1C(=O)c2c(CCc3ccccc3)cc3c4ccc5c6cc(CCc7ccccc7)c7c8c(c(CCc9ccccc9)cc(c9ccc(c%10cc(CCc%11ccccc%11)c(c2c3%10)C1=O)c4c59)c86)C(=O)N(CC(CC)CCCC)C7=O (centres unmarked) [Compound 10, N,N′-bis(2-ethylhexyl)-2,5,10,13-tetrakis(phenethyl)terrylene-3, 4:11,12-bis(dicarboximide)]	1.90							649	80000	661^ nm	0.95	~200 mV		−0.83^	1.1	3000 (≈ 2600 µM)	
N,N′-bis(n-octyl)-perylene-3, 4:9,10-bis(dicarboximide) [Compound 7]	2.34	−0.50^c	80000	535^a nm	0.99^g	526							−0.73^c		1.67		Solubility in toluene ([7]; toluene): <1000 µg/mL

Now from value to compound, other results behind:

E(S1) [1] [eV]	Compound	E^−1/2 [2]	ε [3] [M⁻¹ cm⁻¹]	λem [3]	φF [3]	λmax [3] [nm]	τD [4]	λmax [1] [nm]	ε [1] [M⁻¹ cm⁻¹]	λem [1]	φF [1]	Reduction potential more negative than that of parent compound [5]	E^2−1/2 [2]	E^−1/2 [5, 8]	E^+1/2 [5, 8] [V]	solubility [7] [µg/mL]	further results
3.38	CCCCCCCCN1C(=O)c2cccc3cccc(c23)C1=O [Compound 1, N-(n-octyl)-naphthalene-1,8-dicarboximide]	−1.40^a	10647	386^a nm	0.25^d	350	<50^a ps										
3.34	CCCCCCCCN1C(=O)c2c(CCc3ccccc3)ccc3ccc(CCc4ccccc4)c(c23)C1=O [Compound 2, N-(n-octyl)-2,7-bis(phenylethyl)naphthalene-1,8-dicarboximide]							353	15000	394^ nm	0.08	approximately 130 mV					E^−1/2 ([5]; obtained in benzonitrile with 0.1 M TBAPF6): −1.53^b; τD [6]: 34 ps and 34 ± 1 ps
3.15	CCCCCCCCN1C(=O)c2ccc3c4c(ccc(c24)C1=O)C(=O)N(CCCCCCCC)C3=O [Compound 3, N,N′-bis(n-octyl)-naphthalene-1,8:4,5-bis(dicarboximide)]	−0.48^a	14500	407^a nm	0.0018^e	382	<20^a ps						−0.99^a				
3.09	CCCCCCCCN1C(=O)c2cc(CCc3ccccc3)c3c4c(c(CCc5ccccc5)cc(c24)C1=O)C(=O)N(CCCCCCCC)C3=O [Compound 4, N,N′-bis(n-octyl)-2,7-bis(phenethyl)naphthalene-1,8:4,5-bis(dicarboximide)]							390	14000	415^ nm	0.0005	approximately 130 mV		−0.61^			E^2−1/2 ([5]; dichloromethane, 0.1 M TBAPF6): −1.15^
1.88	N,N′-bis(2-ethylhexyl)-terrylene-3,4:11,12-bis(dicarboximide) [Compound 9]	−0.63^c	93000	673^b nm	0.95^h	650									1.12		Solubility in toluene [7]: <1000 µg/mL
